Measured values from patent US8541404B2, “Inhibitors of the human aldosterone synthase CYP11B2” (ElexoPharm GmbH, priority 2009, dated 2013).
Structures can show the parent of a compound that is named as a salt.

Row | SMILES | melting point [°C]
1 | O=C1CCc2cc(-c3cncc(O)c3)cc3c2N1CC3 (as salt: HCl) [Example 23, 8-(5-Hydroxypyridin-3-yl)-1,2,5,6-tetrahydro-pyrrolo[3,2,1-ij]quinolin-4-one] | > 300
2 | COc1cncc(-c2ccc3c(c2)CCC(=O)N3)c1 [Example 4, 6-(5-Methoxypyridin-3-yl)-3,4-dihydro-1H-quinolin-2-one] | 215
3 | CC(C)N1C(=O)CCc2cc(-c3cccnc3)ccc21 [Example 10, 1-Isopropyl-6-pyridin-3-yl-3,4-dihydro-1H-quinolin-2-one] | 101
4 | O=C1CCc2cc(-c3cccnc3)cc3c2N1CC3 [Example 11, 8-Pyridin-3-yl-1,2,5,6-tetrahydro-pyrrolo[3,2,1-ij]quinoline-4-one] | 152
5 | COc1cncc(-c2cc3c4c(c2)CCN4C(=O)CC3)c1 [Example 17, 8-(5-Methoxypyridin-3-yl)-1,2,5,6-tetrahydro-pyrrolo[3,2,1-ij]quinolin-4-one] | 172
6 | O=C1CCc2cc(-c3cncc4ccccc34)cc3c2N1CC3 [Example 18, 8-Isoquinolin-4-yl-1,2,5,6-tetrahydro-pyrrolo[3,2,1-ij]quinolin-4-one] | 185
7 | O=C1CCc2cc(-c3cncnc3)ccc2N1 [Example 21, 6-Pyrimidin-5-yl-3,4-dihydro-1H-quinolin-2-one] | 233
8 | CCOc1cncc(-c2cc3c4c(c2)CCN4C(=O)CC3)c1 [Example 25, 8-(5-Ethoxypyridin-3-yl)-1,2,5,6-tetrahydro-pyrrolo[3,2,1-ij]quinolin-4-one] | 172
9 | O=C1CCc2cc(-c3cncc(C(F)(F)F)c3)cc3c2N1CC3 [Example 26, 8-(5-Trifluoromethylpyridin-3-yl)-1,2,5,6-tetrahydro-pyrrolo[3,2,1-ij]quinolin-4-one] | 212
10 | O=C1CCc2cc(-c3cncc(F)c3)cc3c2N1CC3 [Example 27, 8-(5-Fluoropyridin-3-yl)-1,2,5,6-tetrahydro-pyrrolo[3,2,1-ij]quinolin-4-one] | 158
11 | O=C1CCc2cc(-c3cncnc3)cc3c2N1CC3 [Example 30, 8-Pyrimidin-5-yl-1,2,5,6-tetrahydro-pyrrolo[3,2,1-ij]quinolin-4-one] | 186
12 | O=C(c1cccnc1)c1cc2c3c(c1)CCN3C(=O)CC2 [Example 32, 8-(Pyridine-3-carbonyl)-1,2,5,6-tetrahydro-pyrrolo[3,2,1-ij]quinolin-4-one] | 147
13 | O=C1CCc2cc(-c3cncc(-c4ccccc4)c3)cc3c2N1CC3 [Example 33, 8-(5-Phenylpyridin-3-yl)-1,2,5,6-tetrahydro-pyrrolo[3,2,1-ij]quinolin-4-one] | 189
14 | CC(C)Oc1cncc(-c2cc3c4c(c2)CCN4C(=O)CC3)c1 [Example 34, 8-(5-Isopropoxypyridin-3-yl)-1,2,5,6-tetrahydro-pyrrolo[3,2,1-ij]quinolin-4-one] | 155
15 | O=C1CCc2cc(-c3cncc(-c4cccc(F)c4)c3)cc3c2N1CC3 [Example 37, 8-[5-(3-Fluorophenyl)-pyridin-3-yl]-1,2,5,6-tetrahydro-pyrrolo[3,2,1-ij]quinolin-4-one] | 181
16 | O=C1CCc2cc(-c3cncc4ccccc34)cc(F)c2N1 [Example 48, 8-Fluoro-6-isoquinolin-4-yl-3-yl-3,4,4a,8a-tetrahydro-1H-quinolin-2-one] | 202
17 | O=C1CCc2cc(-c3cccnc3)c(O)cc2N1 [Example 50] | 298
18 | Fc1cc2c(cc1-c1cccnc1)CCC(=S)N2 [Example 52] | 248
19 | O=C1COc2cc(-c3cccnc3)ccc2N1 [Example 53, 7-(Pyridin-3-yl)-2H-benzo[b][1,4]oxazin-3(4H)-one] | 256
20 | O=C1CNc2cc(-c3cncc4ccccc34)ccc2N1 [Example 56, 6-(Isoquinolin-4-yl)-3,4-dihydroquinoxalin-2(1H)-one] | > 300
21 | CN1CC(=O)Nc2ccc(-c3cccnc3)cc21 [Example 57, 4-Methyl-6-(pyridin-3-yl)-3,4-dihydroquinoxalin-2(1H)-one] | > 300
22 | CCC(c1cc2c3c(c1)CCN3C(=O)CC2)n1ccnc1 (centres unmarked) [Example 60, 8-(1-(1H-imidazol-1-yl)propyl)-1,2,5,6-tetrahydropyrrolo[3,2,1-ij]quinolin-4-one] | 195

Continued, values first:

Row | melting point [°C] | SMILES
23 | 283 | S=C1CCc2cc(-c3cccnc3)cc3c2N1CC3 (as salt: HCl) [Example 22, 8-Pyridin-3-yl-1,2,5,6-tetrahydro-pyrrolo[3,2,1-ij]quinoline-4-thione]
24 | 101 | CN1C(=O)CCc2cc(-c3cccnc3)ccc21 [Example 2, 1-Methyl-6-pyridin-3-yl-3,4-dihydro-1H-quinolin-2-one]
25 | 189 | O=C1CCc2cc(-c3cccnc3)cc([N+](=O)[O-])c2N1 [Example 13, 8-Nitro-6-pyridin-3-yl-3,4-dihydro-1H-quinolin-2-one]
26 | 175 | S=C1CCc2cc(-c3cccnc3)cc(Cl)c2N1 [Example 15, 8-Chloro-6-pyridin-3-yl-3,4-dihydro-1H-quinoline-2-thione]
27 | 123 | O=C1CCc2cc(-c3cccnc3)cc3c2N1CCC3 [Example 16, 9-Pyridin-3-yl-1,2,6,7-tetrahydro-5H-pyrido[3,2,1-ij]quinolin-3-one]
28 | 159 | O=C1CCc2cc(-c3cncc4ccccc34)cc3c2N1CCC3 [Example 20, 9-Isoquinolin-4-yl-1,2,6,7-tetrahydro-5H-pyrido[3,2,1-ij]quinolin-3-one]
29 | 180 | CC1(C)CC(=O)N2CCc3cc(-c4cccnc4)cc1c32 [Example 24, 6,6-Dimethyl-8-pyridin-3-yl-1,2,5,6-tetrahydro-pyrrolo[3,2,1-ij]quinolin-4-one]
30 | 174 | O=C1CCc2cc(-c3ccncc3)cc3c2N1CC3 [Example 29, 8-Pyridin-4-yl-1,2,5,6-tetrahydro-pyrrolo[3,2,1-ij]quinolin-4-one]
31 | 184 | O=C(c1ccncc1)c1cc2c3c(c1)CCN3C(=O)CC2 [Example 31, 8-(Pyridine-4-carbonyl)-1,2,5,6-tetrahydro-pyrrolo[3,2,1-ij]quinolin-4-one]
32 | 197 | CC(c1cc2c3c(c1)CCN3C(=O)CC2)n1ccnc1 (centres unmarked) [Example 35, 8-(1-Imidazol-1-yl-ethyl)-1,2,5,6-tetrahydro-pyrrolo[3,2,1-ij]quinolin-4-one]
33 | 233 | O=C1CCc2cc(-c3cncc(-c4ccc(F)cc4)c3)cc3c2N1CC3 [Example 36, 8-[5-(4-Fluorophenyl)-pyridin-3-yl]-1,2,5,6-tetrahydro-pyrrolo[3,2,1-ij]quinolin-4-one]
34 | 203 | O=C1CCc2cc(-c3cccnc3)cc(F)c2N1 [Example 46]
35 | 228 | O=C1CCc2cc(-c3cccnc3)c(F)cc2N1 [Example 47]
36 | 281 | O=C1CCc2cc(-c3cncc4ccccc34)c(F)cc2N1 [Example 49]
37 | 235 | Fc1cc(-c2cccnc2)cc2c1NC(=S)CC2 [Example 51]
38 | 266 | O=C1COc2cc(-c3cncc4ccccc34)ccc2N1 [Example 55, 7-(Isoquinolin-4-yl)-2H-benzo[b][1,4]oxazin-3(4H)-one]
